Source: patent US20210052771A1, “NANOPARTICULATE MINERALIZED COLLAGEN GLYCOSAMINOGLYCAN SCAFFOLD WITH AN ANTI-RESORPTION FACTOR” (THE REGENTS OF THE UNIVERSITY OF CALIFORNIA, priority 2018, published 2021)

Tests used:
[1] = test system: canonical BMP receptor signaling pathway; test: Western blot of hMSCs on Col-GAG and MC-GAG with DMH1; format: cell-based, human; settings: 50 μM
Procedure: (§1) Osteogenic differentiation of hMSCs on Col-GAG and MC-GAG: 3×10^5 hMSCs were seeded onto 8 mm discs of CG-GAG and MC-GAG scaffolds in proliferation media. 24 h after seeding, media was switched to osteogenic differentiation media consisting of 10 mM β-glycerophosphate, 50 μg/mL ascorbic acid, and 0.1 μM dexamethasone. For inhibitor studies, scaffolds were treated or untreated with dorsomorphin homologue 1 (DMH1; Sigma-Aldrich) or PD98059 (Cell Signaling Technologies, Beverly, Mass.) separately, all at a concentration of 50 μM. Fresh DMH1 and PD98059 were added to each media change every 3 days.
(§2) Western blot: Lysates were prepared from scaffolds at 0, 4, 14, and 24 days of culture using SDS sample buffer and equal amounts were subjected to 4-20% SDS-PAGE (Bio-Rad, Hercules, Calif.). Western blot analysis was carried out with antibodies against OPG, RANKL, phosphorylated small mothers against decapentaplegic 1/5 (p-Smad1/5), total Smad5, phosphorylated extracellular regulated kinase 1/2 (p-ERK1/2), total ERK1/2, and (3-actin followed by 1:4000 dilutions of HRP-conjugated IgG antibodies (Bio-Rad, Hercules, Calif.) and an enhanced chemiluminescent substrate (Thermo Scientific, Rockford, Ill.). For detection of p-Smad1/5 and total Smad5, 10 μg of lysate was loaded per lane. For detection of OPG, RANKL, p-ERK1/2, total ERK1/2, and β-actin, 20 μg of lysate was loaded per lane. All antibodies were obtained from Cell Signaling Technologies (Beverly, Mass.) with the exception of RANKL, OPG and β-actin antibodies which were obtained from Santa Cruz Biotechnology (Santa Cruz, Calif.). Imaging analysis was carried out using ImageJ (NIH, Bethesda, Md.).

[2] = test system: MEK1/ERK1/2 signaling pathway; test: Western blot of hMSCs on Col-GAG and MC-GAG with PD98059; format: cell-based, human; settings: 50 μM
Procedure: as §1, §2

[3] = all timepoints, either material

Structure (SMILES) | total Smad5, total ERK1/2, RANKL, or actin [1] | phosphorylated ERK1/2 ([1]; MC-GAG at day 4) | phosphorylation of Smad1/5 [1, 3] | OPG expression ([1]; both Col-GAG and MC-GAG, particularly day 14) | phosphorylated Smad1/5, total Smad5, total ERK1/2, or actin [2] | OPG protein expression ([2]; Col-GAG) | RANKL expression ([2]; Col-GAG) | OPG protein expression ([2]; MC-GAG, all timepoints) | RANKL expression ([2]; MC-GAG, particularly day 24) | phosphorylated ERK1/2 [2, 3]
CC(C)Oc1ccc(-c2cnc3c(-c4ccnc5ccccc45)cnn3c2)cc1 [DMH1, dorsomorphin homologue 1] | No differences | small elevation | partially decreased | increased |  |  |  |  |  | 
COc1cccc(-c2cc(=O)c3ccccc3o2)c1N [PD98059] |  |  |  |  | no effects | no differences | no differences | decreased | downregulated | decreased
